The text below walks through data of US12084430B2, “Tricyclic urea compounds as JAK2 V617F inhibitors” (Incyte Corporation, priority 2022, dated 2024).

For one experiment, the system named is FLT3. The experiment in a line: FLT3 enzymatic assay. Format: biochemical. On the procedure:
Example C. FLT3 Enzymatic Assay
(§1) The kinase assays were carried out at room temperature in assay buffer (HEPES 50 mM, pH 7.0, NaN3 0.02%, BSA 0.01%, Orthovanadate 0.1 mM, DTT 1 mM, MgCl2 10 mM) in a final volume of 10 μL. Testing compounds were prepared by serial dilution in DMSO and transferred to the plate wells by ECHO liquid handler (Labcyte) with 0.5% DMSO in the final assay. […]. Reactions were initiated by the addition of 5 μL ATP in assay buffer. The final 10 μL kinase reaction consists of 0.011 nM FLT3, 1 mM ATP, 500 nM TK Substrate-biotin and SEB reagent 62.5 nM in assay buffer. […] The plates were then sealed and centrifuged at 1800 rpm for 2 minutes. After 60 minutes incubation at room temperature, the product activity was determined by measuring the fluorescence at 620 nm and 665 nm on Pherastar microplate reader (BMG Labtech). A ratio is calculated (665/620 nm) for each well. Wells with DMSO only were served as the positive controls and wells containing no ATP were used as negative controls. IC50 determination was performed by fitting the curve of percent control activity versus the log of the compound concentration using the GraphPad Prism 7.0 software.

Experiment [1] deals with pSTAT5 signaling in SET-2 cells in whole blood. The experiment in a line: pSTAT5 SET-2 whole blood MSD assay. It is filed as cell-based. The settings on record: Homo sapiens, pSTAT5, 2 hour, read-out: SET2 WB IC50. On the procedure: Example F. pSTAT5 SET-2 Whole Blood MSD Assay
SET-2 cells shipped from ABS, RPMI1640 medium, Fetal Bovine Serum from Gibco, Phospho-STAT5a,b Whole Cell Lysate Kit from Mesoscale, Retronectin (Recombinant Human Fibronectin Fragment) from TaKaRa, 96 well cell culture plate flat bottom from Corning, lysis buffer from Cell Signaling Technology, and sterile PBS from Gibco. Whole Blood from by BioIVT.
SET-2 cells were cultured in RPMI media with 20% FBS at 37° C. humidified incubator supplied with 5% CO2. On the day of the assay, 40 uL per well of diluted retronectin working solution was added to sterile 96-well clear flat bottom tissue culture plates (1:200 dilution of retronectin in sterile PBS) and incubated at 37 C for 1 hour. After 1 hour, the retronectin working solution was aspirated and SET-2 cells were seeded at 100,000/well in RPMI+20% FBS. Cells were incubated overnight at 37° C. and 5% CO2. The next day, the medium was removed and 40 μL of diluted compounds in serum-free RPMI and whole blood was added to the cells for a 2 hour incubation at 37° C. and 5% CO2. The compound starting concentration is 20 μM and 2.5 fold serial diluted down to 0.21 nM. The whole blood and compound mixture was then aspirated off using the BlueCat plate washer and washed 1× with PBS. Cells were lysed by adding 40 μL of 3× complete lysis buffer and shaken at room temperature for 45-60 minutes (complete lysis buffer consists of Cell Signaling Technology lysis buffer diluted to 3× and supplemented with Mesoscale's protease inhibitor, phosphatase I inhibitor, and phosphatase II inhibitor). The pSTAT5 MSD plates were blocked by adding 150 μL of Blocker A solution per well to the MSD plates and incubated at room temperature with shaking at 400 rpm for one hour or longer. After blocking, plates were washed 3× with 300 μL/well of IX Tris Wash Buffer. After lysis, added 25 μL per well of lysed sample was added to MSD plate and incubated with shaking at 4° C. wrapped in foil overnight. The next day, plates were washed again and 25 μL/well of diluted 1× Detection Antibody Solution, wrapped in foil, and incubated at room temperature with shaking at 400 rpm for 1 hour. Plates were then washed again and lastly, 150 μL/well of 1× Read Buffer T was added to all wells. Plates were analyzed on MSD Discovery within 5 minutes. […] Data analysis was performed in GraphPad Prism using a 4-parameter fit and data was reported as Average±SD.

The subject of experiment [2] is KIT. The experiment in a line: KIT enzymatic assay. It is filed as biochemical. On the procedure: (§2) Example D. KIT Enzymatic Assay
as §1, with “0.12” for “0.011”, “KIT,” for “FLT3,”

In experiment [3] the target is KIT (Homo sapiens, UniProt P10721). The experiment in a line: KIT enzymatic assay. Format: biochemical. The conditions noted are these: 1 mM ATP. On the procedure:
as §2
as §1, with “0.12” for “0.011”, “KIT,” for “FLT3,”

Sequence of KIT (Homo sapiens, UniProt P10721) (P10721 26-976, species assumed): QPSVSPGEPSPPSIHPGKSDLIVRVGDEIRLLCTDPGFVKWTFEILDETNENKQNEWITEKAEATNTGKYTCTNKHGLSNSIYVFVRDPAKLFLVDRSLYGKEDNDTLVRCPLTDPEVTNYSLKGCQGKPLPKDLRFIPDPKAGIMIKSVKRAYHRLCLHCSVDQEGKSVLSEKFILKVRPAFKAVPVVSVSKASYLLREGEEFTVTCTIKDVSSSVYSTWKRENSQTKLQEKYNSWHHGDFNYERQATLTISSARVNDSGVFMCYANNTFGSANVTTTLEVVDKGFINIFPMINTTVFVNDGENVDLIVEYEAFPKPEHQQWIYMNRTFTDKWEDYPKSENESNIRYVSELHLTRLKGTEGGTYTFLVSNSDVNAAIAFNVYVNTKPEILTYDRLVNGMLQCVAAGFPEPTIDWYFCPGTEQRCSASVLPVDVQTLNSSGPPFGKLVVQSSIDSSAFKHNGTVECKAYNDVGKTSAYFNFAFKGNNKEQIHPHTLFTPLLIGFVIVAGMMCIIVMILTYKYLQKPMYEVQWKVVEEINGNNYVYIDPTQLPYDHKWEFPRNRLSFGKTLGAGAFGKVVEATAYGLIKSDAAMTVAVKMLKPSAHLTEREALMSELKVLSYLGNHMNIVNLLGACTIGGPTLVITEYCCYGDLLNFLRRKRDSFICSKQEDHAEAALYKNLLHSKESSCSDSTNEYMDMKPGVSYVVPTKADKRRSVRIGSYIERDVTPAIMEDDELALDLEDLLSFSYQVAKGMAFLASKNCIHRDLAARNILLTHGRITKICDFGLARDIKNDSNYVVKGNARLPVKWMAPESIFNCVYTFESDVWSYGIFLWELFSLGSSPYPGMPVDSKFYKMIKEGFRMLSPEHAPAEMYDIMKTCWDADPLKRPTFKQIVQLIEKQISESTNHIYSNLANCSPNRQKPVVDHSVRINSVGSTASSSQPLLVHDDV

Broadly, the IC50 is the point on the concentration scale where inhibition reaches its midpoint. Take `[2H]C([2H])([2H])n1cc(-c2[nH]c3ncc4c(c3c2-c2ccc3c(cnn3C([2H])([2H])[2H])c2)n([C@@H]2CC[C@@H](NC(=O)OC)C2)c(=O)n4C([2H])([2H])[2H])c(F)n1` [Example 6, Methyl ((1R,3R)-3-(7-(3-fluoro-1-(methyl-d3)-1H-pyrazol-4-yl)-3-(methyl-d3)-8-(1-(methyl-d3)-1H-indazol-5-yl)-2-oxo-3,6-dihydroimidazo[4,5-d]pyrrolo[2,3-b]pyridin-1(2H)-yl)cyclopentyl)carbamate]: in the experiment on FLT3, the “Selectivity FLT3/JH2 V617F” value is reported as “***** (selectivity of >5000-fold to ≤12500-fold)”. For the same molecule, the IC50 in experiment [1] is at most 2500 nM; against KIT [3], 250 to 1250 nM. Also, in the experiment with KIT [2], the “Selectivity KIT/JH2 V617F” value is “**** (selectivity of >1750-fold to ≤5000-fold)”.
Take `COC(=O)N[C@@H]1CC[C@@H](n2c(=O)n(C)c3cnc4[nH]c(-c5cn(C)nc5OC)c(-c5ccccc5)c4c32)C1` [Example 2, Methyl ((1R,3R)-3-(7-(3-methoxy-1-methyl-1H-pyrazol-4-yl)-3-methyl-2-oxo-8-phenyl-3,6-dihydroimidazo[4,5-d]pyrrolo[2,3-b]pyridin-1(2H)-yl)cyclopentyl)carbamate]: the “Selectivity FLT3/JH2 V617F” value with FLT3 is “**** (selectivity of >1750-fold to ≤5000-fold)”. Also, the IC50 is 2500 to 5000 nM in experiment [1] and above 2500 nM on KIT [3]. In addition, in the experiment on KIT [2], the “Selectivity KIT/JH2 V617F” value was “**** (selectivity of >1750-fold to ≤5000-fold)”.
With `[2H]C([2H])([2H])n1cc(-c2[nH]c3ncc4c(c3c2-c2ccc(C(C)(C)O)cc2)n([C@@H]2CC[C@@H](NC(=O)OC)C2)c(=O)n4C([2H])([2H])[2H])c(F)n1` [Example 10, Methyl ((1R,3R)-3-(7-(3-fluoro-1-(methyl-d3)-1H-pyrazol-4-yl)-8-(4-(2-hydroxypropan-2-yl)phenyl)-3-(methyl-d3)-2-oxo-3,6-dihydroimidazo[4,5-d]pyrrolo[2,3-b]pyridin-1(2H)-yl)cyclopentyl)carbamate], the “Selectivity FLT3/JH2 V617F” value with FLT3 is reported as “**** (selectivity of >1750-fold to ≤5000-fold)”. In addition, the concentration for half-maximal inhibition (IC50) in experiment [1] was at most 2500 nM; on KIT [3] it was 250 to 1250 nM. Moreover, the “Selectivity KIT/JH2 V617F” value in the experiment on KIT [2] is on record as “*** (selectivity of >1500-fold to ≤1750-fold)”.
On to `[2H]C([2H])([2H])n1c(=O)n([C@@H]2CC[C@@H](NC(=O)OC)C2)c2c3c(-c4ccc5c(c4)COC5(C)C)c(-c4cn(CC)nc4F)[nH]c3ncc21` [Example 20, Methyl ((1R,3R)-3-(8-(1,1-dimethyl-1,3-dihydroisobenzofuran-5-yl)-7-(1-ethyl-3-fluoro-1H-pyrazol-4-yl)-3-(methyl-d3)-2-oxo-3,6-dihydroimidazo[4,5-d]pyrrolo[2,3-b]pyridin-1(2H)-yl)cyclopentyl)carbamate], for which the “Selectivity FLT3/JH2 V617F” value in the experiment on FLT3 is “****** (selectivity of >12500-fold)”. Moreover, the IC50 in experiment [1] is at most 2500 nM; at KIT [3] it was above 2500 nM. The “Selectivity KIT/JH2 V617F” value with KIT [2] is “****** (selectivity of >12500-fold)”.
For `[2H]C([2H])([2H])n1c(=O)n([C@@H]2CC[C@@H](NC(=O)OC)C2)c2c3c(-c4ccc5c(c4)COC5(C)C)c(-c4cn(C([2H])([2H])C([2H])([2H])[2H])nc4F)[nH]c3ncc21` [Example 19, Methyl ((1R,3R)-3-(8-(1,1-dimethyl-1,3-dihydroisobenzofuran-5-yl)-7-(1-(ethyl-d5)-3-fluoro-1H-pyrazol-4-yl)-3-(methyl-d3)-2-oxo-3,6-dihydroimidazo[4,5-d]pyrrolo[2,3-b]pyridin-1(2H)-yl)cyclopentyl)carbamate], the “Selectivity FLT3/JH2 V617F” value in the experiment on FLT3 is listed as “****** (selectivity of >12500-fold)”. For the same molecule, the IC50 was at most 2500 nM in experiment [1] and above 2500 nM at KIT [3]. In addition, the “Selectivity KIT/JH2 V617F” value in the experiment with KIT [2] is “****** (selectivity of >12500-fold)”.
For the molecule `[2H]C([2H])([2H])n1cc(-c2[nH]c3ncc4c(c3c2-c2ccc(F)cc2)n([C@@H]2CC[C@@H](NC(=O)OC)C2)c(=O)n4C([2H])([2H])[2H])c(F)n1` [Example 7, Methyl ((1R,3R)-3-(7-(3-fluoro-1-(methyl-d3)-1H-pyrazol-4-yl)-8-(4-fluorophenyl)-3-(methyl-d3)-2-oxo-3,6-dihydroimidazo[4,5-d]pyrrolo[2,3-b]pyridin-1(2H)-yl)cyclopentyl)carbamate], the “Selectivity FLT3/JH2 V617F” value with FLT3 is reported as “**** (selectivity of >1750-fold to ≤5000-fold)”. In addition, the values for the 50% inhibitory concentration (IC50) (in experiment [1]; against KIT [3]) were 2500 to 5000 nM and 250 to 1250 nM, respectively. In the experiment with KIT [2], the “Selectivity KIT/JH2 V617F” value was “** (selectivity of >500-fold to ≤1500-fold)”.
For the molecule `[2H]C([2H])([2H])n1cc(-c2[nH]c3ncc4c(c3c2-c2ccc3c(cnn3C(C)C)c2)n([C@@H]2CC[C@@H](NC(=O)OC)C2)c(=O)n4C([2H])([2H])[2H])c(F)n1` [Example 13, Methyl ((1R,3R)-3-(7-(3-fluoro-1-(methyl-d3)-1H-pyrazol-4-yl)-8-(1-isopropyl-1H-indazol-5-yl)-3-(methyl-d3)-2-oxo-3,6-dihydroimidazo[4,5-d]pyrrolo[2,3-b]pyridin-1(2H)-yl)cyclopentyl)carbamate], the “Selectivity FLT3/JH2 V617F” value with FLT3 was “****** (selectivity of >12500-fold)”. Moreover, the IC50 is at most 2500 nM in experiment [1] and 250 to 1250 nM against KIT [3]. Further, in the experiment with KIT [2], the “Selectivity KIT/JH2 V617F” value is recorded as “**** (selectivity of >1750-fold to ≤5000-fold)”.
`COc1nn(C)cc1-c1[nH]c2ncc3c(c2c1-c1ccc2c(cnn2C)c1)n(C1CCOCC1)c(=O)n3C` [A, reference compound]: the “Selectivity FLT3/JH2 V617F” value with FLT3 is “* (selectivity of ≤500-fold)”. Further, the IC50 in experiment [1] is above 7500 nM; against KIT [3], 250 to 1250 nM. Also, in the experiment with KIT [2], the “Selectivity KIT/JH2 V617F” value was “* (selectivity of ≤500-fold)”.
Turning to `[2H]C([2H])([2H])n1cc(-c2[nH]c3ncc4c(c3c2-c2cc(F)c3c(cnn3C([2H])([2H])[2H])c2)n([C@@H]2CC[C@@H](NC(=O)OC)C2)c(=O)n4C([2H])([2H])[2H])c(F)n1` [Example 17, Methyl ((1R,3R)-3-(8-(7-fluoro-1-(methyl-d3)-1H-indazol-5-yl)-7-(3-fluoro-1-(methyl-d3)-1H-pyrazol-4-yl)-3-(methyl-d3)-2-oxo-3,6-dihydroimidazo[4,5-d]pyrrolo[2,3-b]pyridin-1(2H)-yl)cyclopentyl)carbamate], in the experiment with FLT3, the “Selectivity FLT3/JH2 V617F” value is “****** (selectivity of >12500-fold)”. Moreover, the 50% inhibitory concentration (IC50) in experiment [1] was at most 2500 nM; against KIT [3], 1250 to 2500 nM. In addition, the “Selectivity KIT/JH2 V617F” value in the experiment on KIT [2] is “****** (selectivity of >12500-fold)”.
